# Measured values published in patent US9200008B2 (ASKA PHARMACEUTICAL CO., LTD., priority 2010, dated 2015).
# System: Human prostate cancer cell lines (PC-3 cells)
# Test: Measurement of cell death-inducing activity (Test Example 1)
# Assay type: cell-based
# Details: PC-3, 48 h, 48 hours after addition, tested at 10, 1, 0.1, 0.025 and 0.00625 μmol/L, qualitative evaluation of 10 fields, read-out: Concentration showing the cell death-inducing activity (cell death-inducing rate not less than 40%)
# Summary of the method: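 PC-3 cells seeded at 1×10^5 cells/well and grown 48 h at 37 °C, 5% CO2, then exposed to compound at 10, 1, 0.1, 0.025 and 0.00625 μmol/L (DMSO control) for a further 48 h. Activity was called where cell death-inducing rate was not less than 40%.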
row,Compound,minimal effective concentration [µM]
1,COc1cc(C)ccc1-c1nc(C)c(NC(=O)OCc2ccc3c(c2)nc2n3CCCC2)s1 [Example 9-112],0.1
2,COc1cc(F)ccc1-c1cc(NC(=O)OCc2ccc3nn(C)cc3c2)n(C)n1 [Example 9-290],0.1
3,CCc1nc(-c2ccc(F)cc2C)sc1NC(=O)OCc1ccc2c(c1)ncn2C [Example 9-163],0.025
4,COc1ccc(-c2nc(C)c(NC(=O)OCc3ccc4nn(C)cc4c3)s2)c(OC)c1 [Example 9-146],0.1
5,COc1ccc(/C=N/NC(=O)c2sc(-c3ccc(Cl)cc3OC)nc2C)cc1O [Example 23-74],0.1
6,Cc1cc(/C=N/NC(=O)c2sc(-c3ccc(Cl)cc3)nc2C(F)(F)F)cc(C)c1O [Example 23-19],10
7,"COc1cc(Cl)ccc1-c1nc(C)c(C(=O)NN(C)Cc2cc(C)c(O)c(C)c2)s1 [Example 17-4, 2-(4-Chloro-2-methoxyphenyl)-4-methylthiazole-5-carboxylic acid N′-(4-hydroxy-3,5-dimethylbenzyl)-N′-methyl hydrazide]",10
8,CCCn1cnc2cc(NC(=O)OCc3sc(-c4ccc(C)cc4C)nc3C)ccc21 [Example 13-19],1
9,COc1cc(Cl)ccc1-c1nc(C)c(NC(=O)OCc2ccc3c(c2)nc2n3CCC2)s1 [Example 9-103],0.00625
10,COc1ccccc1-c1cc(NC(=O)OCc2ccc3c(c2)ncn3C)n(C)n1 [Example 9-213],0.025
11,CCn1nc(-c2ccc(Cl)cc2OC)cc1NC(=O)OCc1ccc2nn(C)cc2c1 [Example 9-292],0.025
12,CCc1nc(-c2ccc(C)cc2C)sc1NC(=O)OCc1ccc2c(cnn2CC)c1 [Example 9-175],0.1
13,COc1ccc(/C=N/NC(=O)c2sc(-c3ccc(C)cc3C)nc2C)cc1O [Example 23-44],0.1
14,Cc1nc(C)c(C(=O)N/N=C/c2cc(C)c(O)c(C)c2)s1 [Example 23-133],10
15,CCn1nc(-c2ccccc2OC)cc1NC(=O)OCc1ccc2c(c1)ncn2C [Example 9-214],0.1
16,CCc1ccccc1-c1nc(C)c(NC(=O)OCc2ccc3c(c2)ncn3CC)s1 [Example 9-56],0.025
17,COc1cc(F)ccc1-c1cc(NC(=O)OCc2ccc3c(c2)ncn3C)n(C)n1 [Example 9-217],0.025
18,CCn1nc(-c2ccc(C)cc2OC)cc1COC(=O)Nc1ccc2c(c1)nc1n2CCC1 [Example 13-113],0.00625
19,CCn1nc(-c2ccc(F)cc2OC)cc1COC(=O)Nc1ccc2c(c1)nc1n2CCCC1 [Example 13-117],0.1
20,COc1cc(Cl)ccc1-c1nc(C)c(C(=O)N/N=C/c2ccc3c(c2)CCO3)s1 [Example 23-83],0.1
21,COc1ccc(-c2nc(C)c(NC(=O)OCc3ccc4ncsc4c3)s2)c(OC)c1 [Example 36-3],10
22,Cn1cnc2cc(COC(=O)Nc3nnc(-c4ccc(Cl)cc4Cl)s3)ccc21 [Example 9-335],10
23,"COc1ccc(CN(C)NC(=O)c2cc(-c3ccc(Cl)cc3OC)n[nH]2)cc1 [Example 18-1, 5-(4-Chloro-2-methoxyphenyl)-2H-pyrazole-3-carboxylic acid N′-(4-methoxybenzyl)-N′-methyl hydrazide]",1
24,Cc1nc(-c2ccc(F)cc2Cl)sc1NC(=O)OCc1ccc2c(c1)nnn2C [Example 9-18],0.1
25,Cc1ccc(-c2cc(NC(=O)OCc3ccc4c(c3)nc3n4CCC3)n(C)n2)c(C)c1 [Example 9-260],0.025
26,COc1cc(Cl)ccc1-c1nc(C)c(NC(=O)OCc2ccc3c(ccn3C)c2)s1 [Example 9-30],1

row,Compound,minimal effective concentration [µM]
1,CCc1nc(-c2ccc(C)cc2OC)sc1NC(=O)OCc1ccc2c(c1)nnn2C [Example 9-372],0.00625
2,CCc1nc(-c2ccc(C)cc2OC)sc1NC(=O)OCc1ccc2nn(C)cc2c1 [Example 9-365],0.025
3,Cc1ccc(-c2nc(C)c(COC(=O)Nc3ccc4c(c3)nc3n4CCCC3)s2)c(C)c1 [Example 13-33],0.1
4,CCCc1nc(-c2ccc(C)cc2C)sc1NC(=O)OCc1ccc2c(c1)ncn2C [Example 9-184],1
5,COc1cc(Cl)ccc1-c1nc(C)c(C(=O)N/N=C/c2ccc(O)cc2)s1 [Example 23-75],1
6,Cn1nc(-c2ccccc2)cc1NC(=O)OCc1ccc2c(c1)ncn2C [Example 9-204],10
7,Cc1nc(-c2sccc2Cl)sc1NC(=O)OCc1ccc2c(c1)ncn2C [Example 9-192],1
8,CCc1nc(-c2ccc(Cl)cc2C)sc1NC(=O)OCc1ccc2c(cnn2CC)c1 [Example 9-362],0.025
9,CCn1cc2ccc(COC(=O)Nc3cc(-c4ccc(Cl)cc4OC)nn3C)cc2n1 [Example 9-301],0.025
10,COc1ccc(CN(C)NC(=O)c2sc(-c3ccc(Cl)cc3OC)nc2C)cc1O [Example 16-24],0.1
11,CCn1nc(-c2ccc(C)cc2OC)cc1NC(=O)OCc1ccc2c(c1)ncn2C [Example 9-227],0.00625
12,"Cc1cc(/C=N/NC(=O)c2cc(-c3ccc(Cl)cc3)c[nH]2)cc(C)c1O [Example 24-3, 4-(4-Chlorophenyl)-1H-pyrrole-2-carboxylic acid[1-(4-hydroxy-3,5-dimethylphenyl)methylidene]hydrazide]",0.1
13,COc1ccc(-c2nc(C)c(NC(=O)OCc3ccc4c(c3)ncn4C)s2)c(OC)c1 [Example 9-41],0.025
14,Cc1cc(F)ccc1-c1nc(C)c(NC(=O)OCc2ccc3c(c2)nc(C)n3C)s1 [Example 9-80],0.1
15,CCc1nc(-c2ccc(C)cc2OC)sc1NC(=O)OCc1ccc2c(c1)nc(C)n2C [Example 9-374],0.1
16,CCn1nc(-c2ccccc2OC)cc1NC(=O)OCc1ccc2c(c1)nc1n2CCOC1 [Example 9-244],1
17,COc1ccc(/C=N/NC(=O)c2sc(C3CCCCC3)nc2C)cc1O [Example 23-128],1
18,Cc1nc(-c2ccc(F)cc2Cl)sc1COC(=O)Nc1ccc2c(c1)nc1n2CCC1 [Example 13-30],0.1
19,COc1cc(Cl)ccc1-c1cc(COC(=O)Nc2ccc3c(c2)CCO3)n(C)n1 [Example 13-73],10
20,Cc1cc(F)ccc1-c1nc(C)c(NC(=O)OCc2ccc3c(c2)nc2n3CCOC2)s1 [Example 9-97],0.025
21,CCc1nc(-c2ccc(C)cc2C)sc1NC(=O)OCc1ccc2c(c1)ncn2C [Example 9-182],0.025
22,COc1cc(Cl)ccc1-c1nc(C)c(C(=O)NN(C)Cc2ccc(SC)cc2)s1 [Example 16-22],1
23,O=C(N/N=C/c1ccc(OC(F)F)c(O)c1)c1cc(-c2ccc(Cl)cc2Cl)ns1 [Example 27-2],10
24,COc1ccc(-c2nc(C)c(C(=O)N/N=C/c3cc(C)c(O)c(C)c3)s2)cc1 [Example 23-104],1
25,Cc1ccccc1-c1cc(NC(=O)OCc2ccc3c(c2)nc(C)n3C)n(C)n1 [Example 9-238],10
